Data as given in PubChem BioAssay AID1259407 (Chemical Carcinogenesis Research Information System (CCRIS), 2018).
Activity calls are given as the source filed them. The rule behind the calls is not given here.

System: CCRIS mutagenicity, Ames/micronucleus/aberration tests
Assay: CCRIS mutagenicity studies
[1] = Test System: AMES SALMONELLA TYPHIMURIUM, Strain/Indicator: TA98, Metabolic Activation: RAT, LIVER, S-9, AROCLOR 1254, Method: STANDARD PLATE
[2] = Test System: AMES SALMONELLA TYPHIMURIUM, Strain/Indicator: TA100, Metabolic Activation: RAT, LIVER, S-9, AROCLOR 1254, Method: STANDARD PLATE
[3] = Test System: AMES SALMONELLA TYPHIMURIUM, Strain/Indicator: TA97, Metabolic Activation: NONE, Method: PREINCUBATION
[4] = Test System: AMES SALMONELLA TYPHIMURIUM, Strain/Indicator: TA98, Metabolic Activation: NONE, Method: PREINCUBATION
[5] = Test System: AMES SALMONELLA TYPHIMURIUM, Strain/Indicator: TA100, Metabolic Activation: NONE, Method: PREINCUBATION
[6] = Test System: AMES SALMONELLA TYPHIMURIUM, Strain/Indicator: TA1535, Metabolic Activation: NONE, Method: PREINCUBATION

## Clc1cccnc1
Test System: AMES SALMONELLA TYPHIMURIUM, Strain/Indicator: TA97, Metabolic Activation: NONE, Method: STANDARD PLATE
  mutagenic call: inactive; negative
Test System: AMES SALMONELLA TYPHIMURIUM, Strain/Indicator: TA97, Metabolic Activation: RAT, LIVER, S-9, AROCLOR 1254, Method: STANDARD PLATE
  mutagenic call: inactive; negative
Test System: AMES SALMONELLA TYPHIMURIUM, Strain/Indicator: TA98, Metabolic Activation: NONE, Method: STANDARD PLATE
  mutagenic call: inactive; negative
[1]
  mutagenic call: inactive; negative
Test System: AMES SALMONELLA TYPHIMURIUM, Strain/Indicator: TA100, Metabolic Activation: NONE, Method: STANDARD PLATE
  mutagenic call: inactive; negative
[2]
  mutagenic call: inactive; negative
Test System: AMES SALMONELLA TYPHIMURIUM, Strain/Indicator: TA102, Metabolic Activation: NONE, Method: STANDARD PLATE
  mutagenic call: inactive; negative
Test System: AMES SALMONELLA TYPHIMURIUM, Strain/Indicator: TA102, Metabolic Activation: RAT, LIVER, S-9, AROCLOR 1254, Method: STANDARD PLATE
  mutagenic call: inactive; negative
Test System: MOUSE LYMPHOMA, Strain/Indicator: L5178Y (TK+/TK-), Metabolic Activation: NONE
  mutagenic call: active; positive
Test System: MOUSE LYMPHOMA, Strain/Indicator: L5178Y (TK+/TK-), Metabolic Activation: RAT, LIVER, S-9, AROCLOR 1254
  mutagenic call: active; positive

## O=[N+]([O-])C1CCCCC1
Test System: UDS RAT HEPATOCYTES, Strain/Indicator: THY INCORP, Metabolic Activation: NONE
  mutagenic call: active; positive

## CC(=O)c1c(C)c([N+](=O)[O-])c(C(C)(C)C)c([N+](=O)[O-])c1C
Test System: AMES SALMONELLA TYPHIMURIUM, Strain/Indicator: TA97, Metabolic Activation: HAMSTER, LIVER, S-9, AROCLOR 1254 (10 OR 30%), Method: PREINCUBATION
  mutagenic call: inactive; negative
[3]
  mutagenic call: inactive; negative
Test System: AMES SALMONELLA TYPHIMURIUM, Strain/Indicator: TA97, Metabolic Activation: RAT, LIVER, S-9, AROCLOR 1254 (10 OR 30%), Method: PREINCUBATION
  mutagenic call: inactive; negative
Test System: AMES SALMONELLA TYPHIMURIUM, Strain/Indicator: TA98, Metabolic Activation: HAMSTER, LIVER, S-9, AROCLOR 1254 (10 OR 30%), Method: PREINCUBATION
  mutagenic call: inactive; negative
[4]
  mutagenic call: inactive; negative
Test System: AMES SALMONELLA TYPHIMURIUM, Strain/Indicator: TA98, Metabolic Activation: RAT, LIVER, S-9, AROCLOR 1254 (10 OR 30%), Method: PREINCUBATION
  mutagenic call: inactive; negative
Test System: AMES SALMONELLA TYPHIMURIUM, Strain/Indicator: TA98, Metabolic Activation: RAT, LIVER, S-9, AROCLOR 1254, Method: PREINCUBATION
  mutagenic call: inactive; negative
[1]
  mutagenic call: inactive; negative
Test System: AMES SALMONELLA TYPHIMURIUM, Strain/Indicator: TA100, Metabolic Activation: HAMSTER, LIVER, S-9, AROCLOR 1254 (10 OR 30%), Method: PREINCUBATION
  mutagenic call: inactive; negative
[5]
  mutagenic call: inactive; negative
Test System: AMES SALMONELLA TYPHIMURIUM, Strain/Indicator: TA100, Metabolic Activation: RAT, LIVER, S-9, AROCLOR 1254 (10 OR 30%), Method: PREINCUBATION
  mutagenic call: inactive; negative
Test System: AMES SALMONELLA TYPHIMURIUM, Strain/Indicator: TA100, Metabolic Activation: RAT, LIVER, S-9, AROCLOR 1254, Method: PREINCUBATION
  mutagenic call: inactive; negative
[2]
  mutagenic call: inactive; negative
Test System: AMES SALMONELLA TYPHIMURIUM, Strain/Indicator: TA1535, Metabolic Activation: HAMSTER, LIVER, S-9, AROCLOR 1254 (10 OR 30%), Method: PREINCUBATION
  mutagenic call: inactive; negative
[6]
  mutagenic call: inactive; negative
Test System: AMES SALMONELLA TYPHIMURIUM, Strain/Indicator: TA1535, Metabolic Activation: RAT, LIVER, S-9, AROCLOR 1254 (10 OR 30%), Method: PREINCUBATION
  mutagenic call: inactive; negative
Test System: MOUSE LYMPHOMA, Strain/Indicator: L5178Y (TK+/TK-), Metabolic Activation: NONE, Method: SUSPENSION/PLATE
  mutagenic call: inactive; negative
Test System: MOUSE LYMPHOMA, Strain/Indicator: L5178Y (TK+/TK-), Metabolic Activation: RAT, LIVER, S-9, AROCLOR 1242 AND AROCLOR 1254 (2:1), Method: SUSPENSION/PLATE
  mutagenic call: inactive; negative
Test System: UDS RAT PRIMARY HEPATOCYTES, Strain/Indicator: THY INCORP, Metabolic Activation: NONE
  mutagenic call: inactive; negative

## CCCCC(CC)CNCC(CC)CCCC (stereo unspecified)
Test System: AMES SALMONELLA TYPHIMURIUM, Strain/Indicator: TA97, Metabolic Activation: HAMSTER, LIVER, S-9, AROCLOR 1254 (10%), Method: PREINCUBATION
  mutagenic call: inactive; negative
Test System: AMES SALMONELLA TYPHIMURIUM, Strain/Indicator: TA97, Metabolic Activation: HAMSTER, LIVER, S-9, AROCLOR 1254 (30%), Method: PREINCUBATION
  mutagenic call: inactive; negative
[3]
  mutagenic call: inactive; negative
Test System: AMES SALMONELLA TYPHIMURIUM, Strain/Indicator: TA97, Metabolic Activation: RAT, LIVER, S-9, AROCLOR 1254 (10%), Method: PREINCUBATION
  mutagenic call: inactive; negative
Test System: AMES SALMONELLA TYPHIMURIUM, Strain/Indicator: TA97, Metabolic Activation: RAT, LIVER, S-9, AROCLOR 1254 (30%), Method: PREINCUBATION
  mutagenic call: inactive; negative
Test System: AMES SALMONELLA TYPHIMURIUM, Strain/Indicator: TA98, Metabolic Activation: HAMSTER, LIVER, S-9, AROCLOR 1254 (10%), Method: PREINCUBATION
  mutagenic call: inactive; negative
Test System: AMES SALMONELLA TYPHIMURIUM, Strain/Indicator: TA98, Metabolic Activation: HAMSTER, LIVER, S-9, AROCLOR 1254 (30%), Method: PREINCUBATION
  mutagenic call: inactive; negative
[4]
  mutagenic call: inactive; negative
Test System: AMES SALMONELLA TYPHIMURIUM, Strain/Indicator: TA98, Metabolic Activation: RAT, LIVER, S-9, AROCLOR 1254 (10%), Method: PREINCUBATION
  mutagenic call: inactive; negative
Test System: AMES SALMONELLA TYPHIMURIUM, Strain/Indicator: TA98, Metabolic Activation: RAT, LIVER, S-9, AROCLOR 1254 (30%), Method: PREINCUBATION
  mutagenic call: inactive; negative
Test System: AMES SALMONELLA TYPHIMURIUM, Strain/Indicator: TA100, Metabolic Activation: HAMSTER, LIVER, S-9, AROCLOR 1254 (10%), Method: PREINCUBATION
  mutagenic call: inactive; negative
Test System: AMES SALMONELLA TYPHIMURIUM, Strain/Indicator: TA100, Metabolic Activation: HAMSTER, LIVER, S-9, AROCLOR 1254 (30%), Method: PREINCUBATION
  mutagenic call: inactive; negative
[5]
  mutagenic call: inactive; negative
Test System: AMES SALMONELLA TYPHIMURIUM, Strain/Indicator: TA100, Metabolic Activation: RAT, LIVER, S-9, AROCLOR 1254 (10%), Method: PREINCUBATION
  mutagenic call: inactive; negative
Test System: AMES SALMONELLA TYPHIMURIUM, Strain/Indicator: TA100, Metabolic Activation: RAT, LIVER, S-9, AROCLOR 1254 (30%), Method: PREINCUBATION
  mutagenic call: inactive; negative
Test System: AMES SALMONELLA TYPHIMURIUM, Strain/Indicator: TA1535, Metabolic Activation: HAMSTER, LIVER, S-9, AROCLOR 1254 (10%), Method: PREINCUBATION
  mutagenic call: inactive; negative
Test System: AMES SALMONELLA TYPHIMURIUM, Strain/Indicator: TA1535, Metabolic Activation: HAMSTER, LIVER, S-9, AROCLOR 1254 (30%), Method: PREINCUBATION
  mutagenic call: inactive; negative
[6]
  mutagenic call: inactive; negative
Test System: AMES SALMONELLA TYPHIMURIUM, Strain/Indicator: TA1535, Metabolic Activation: RAT, LIVER, S-9, AROCLOR 1254 (10%), Method: PREINCUBATION
  mutagenic call: inactive; negative
Test System: AMES SALMONELLA TYPHIMURIUM, Strain/Indicator: TA1535, Metabolic Activation: RAT, LIVER, S-9, AROCLOR 1254 (30%), Method: PREINCUBATION
  mutagenic call: inactive; negative

## O=[N+]([O-])O.O=[N+]([O-])O.[O]=[U]=[O]
End Point: In vitro micronucleus, Test System: Rat kidney (NRK-52E) cells, Metabolic Activation: None
  mutagenic call: inactive; negative; depleted uranium tested
